Reference: patent publication US6500842B1, “8-hydroxy-7-substituted quinolines as anti-viral agents” (Pharmacia & Upjohn Company, priority 1996, dated 2002)
Values joined by “and” are separate entries in the source; they are usually repeats but may differ in a detail not shown here. Identical values can stand only once. Like-named read-outs stand apart in the source and are kept apart here.

Legend:
[1] = tested on: HCMV; assay: CMV antiviral assay, cell culture based ELISA in human foreskin fibroblast cells; parameters: species or system human cytomegalovirus (HCMV)
Procedure: Compounds are tested for direct antiviral activity against HCMV using a cell culture based assay. An ELISA (enzyme linked immunosorbant assay) format is used as described in W. A. Tatarowicz, N. S. Lurain and K. D. Thompson, J. Virol. Meth., 35:207-215 (1991). Human foreskin fibroblast cells are infected with HCMV at a multiplicity of 0.025 plaque forming units per microtiter plate well for a period of 90 minutes. The virus inocula is removed and a suspension of test compound prepared in tissue culture media is added for a period of 4 days. The growth media is aspirated and replaced with 95% ethanol to allow fixation of virus infected cultures. The ethanol is removed and the wells are washed twice with saline. A solution of 2% dry fat milk, 1% bovine sera albumin prepared in saline is added to wells to allow for non-specific binding of protein material to plastic surfaces for 1 hr. Murine monoclonal antibody prepared in saline directed against the late (65 KD) matrix protein of HCMV is added to test wells for 1 hr. The wells are washed twice and antibody, conjugated with the enzyme horse radish peroxidase, with specificity against murine IgG is added to test wells for 1 hr. Test wells are washed three times with saline. A solution of o-phenylene diamine, a substrate for horse radish peroxidase is added for 15 minutes at which time enzymatic conversion occurs indicating reactivity of the enzyme with its substrate. This conversion is evident as a color reaction which was spectrophoretically monitored at 490 nm. The intensity of the color indirectly reflects the presence of antibody directed against the viral 65 KD matrix antigen. The presence of the viral matrix antigen refects the amount of HCMV replication. Thus, test wells, in which little viral replication has occurred, would have little or no antibody binding and are present with low levels of color. Non-infected wells serve as the assay background control.

[2] = target: T1, CMV polymerase (Human cytomegalovirus, UniProt P08546); assay: modified version of the HCMV polymerase assay (100% DMSO dilution, DTT, different enzyme lot); format: biochemical; settings: Table 6
T1 construct: made in house; host or cells: recombinant baculovirus-infected SF-9 cells
T1 sequence (P08546 whole entry): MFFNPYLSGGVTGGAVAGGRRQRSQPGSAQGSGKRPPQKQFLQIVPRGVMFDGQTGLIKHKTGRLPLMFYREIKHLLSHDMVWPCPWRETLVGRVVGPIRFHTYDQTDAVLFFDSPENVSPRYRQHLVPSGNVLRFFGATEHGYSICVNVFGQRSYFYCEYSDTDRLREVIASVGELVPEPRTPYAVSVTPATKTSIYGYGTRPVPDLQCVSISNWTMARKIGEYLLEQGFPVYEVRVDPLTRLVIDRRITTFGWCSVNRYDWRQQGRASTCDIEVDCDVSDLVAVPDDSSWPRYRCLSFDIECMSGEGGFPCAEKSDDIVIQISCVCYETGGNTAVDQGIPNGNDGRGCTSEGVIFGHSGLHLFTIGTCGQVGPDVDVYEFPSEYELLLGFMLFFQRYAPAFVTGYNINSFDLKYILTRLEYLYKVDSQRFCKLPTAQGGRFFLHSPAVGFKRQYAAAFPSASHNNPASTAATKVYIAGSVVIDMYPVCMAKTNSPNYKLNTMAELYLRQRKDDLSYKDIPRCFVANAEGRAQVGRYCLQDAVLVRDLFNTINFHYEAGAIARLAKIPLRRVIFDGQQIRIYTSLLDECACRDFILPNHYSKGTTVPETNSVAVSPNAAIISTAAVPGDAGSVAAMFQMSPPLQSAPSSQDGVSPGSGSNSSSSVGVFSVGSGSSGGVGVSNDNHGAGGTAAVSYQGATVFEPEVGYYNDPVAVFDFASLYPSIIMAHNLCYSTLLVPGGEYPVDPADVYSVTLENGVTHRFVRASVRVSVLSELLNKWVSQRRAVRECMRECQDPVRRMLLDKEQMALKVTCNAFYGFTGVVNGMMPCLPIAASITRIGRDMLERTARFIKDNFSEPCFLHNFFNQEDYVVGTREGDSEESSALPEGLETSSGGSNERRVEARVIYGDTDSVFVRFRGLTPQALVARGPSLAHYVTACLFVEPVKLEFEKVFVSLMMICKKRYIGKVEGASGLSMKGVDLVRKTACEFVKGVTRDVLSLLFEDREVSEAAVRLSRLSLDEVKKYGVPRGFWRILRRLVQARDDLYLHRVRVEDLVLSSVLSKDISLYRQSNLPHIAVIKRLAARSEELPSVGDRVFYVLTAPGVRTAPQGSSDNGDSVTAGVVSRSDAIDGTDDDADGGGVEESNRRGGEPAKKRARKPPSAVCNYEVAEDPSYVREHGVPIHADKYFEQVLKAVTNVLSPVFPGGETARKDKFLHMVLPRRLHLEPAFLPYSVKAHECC
In short: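 Baculovirus-expressed HCMV polymerase incorporated 90 nM 3H-dTTP on 6 nM biotinylated poly(dA)-oligo(dT) in HEPES pH 7.5, KCl, MgCl2, BSA, ±2 mM CHAPS, 30 min; streptavidin-SPA read-out, IC50 by regression. In this modified version, compounds were diluted in 100% DMSO, 4.5 mM DTT was added, and a different enzyme lot was used.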

[3] = Human betaherpesvirus 5, Fibroblast, read-out: CMV Antiviral Assay IC50 (AV), Table 12
[4] = read-out: CMV Antiviral Assay IC50 (AV), Table 12
[5] = antiviral, Table 4, read-out: IC50 (AV)
[6] = Human betaherpesvirus 5, Fibroblast, antiviral, Table 4, read-out: IC50 (AV)

Cc1ccc2c(Cl)cc(S(=O)(=O)NCc3ccccn3)c(O)c2n1 [drawing 327]
IC50 [1, 3]: 14.4 µM
IC50 [1, 4]: 14.1 µM and 9.4 µM

Cc1ccc2c(Cl)cc(S(=O)(=O)NCCCN3CCOCC3)c(O)c2n1 [drawing 326]
IC50 [1, 3]: 2.5 µM
IC50 [1, 4]: 3.6 µM

CC(C)[Si](c1cc(Cl)c2cccnc2c1O)(C(C)C)C(C)C [Example 42]
% Inh −AV ([1]; Conc 2.00e+001 uM, Table 4): 88.0% and 99.0%
% Inh −AV ([1]; Conc 4.00e+000 uM, Table 4): 51.0% and 89.0%
% Inh −AV ([1]; Conc 4.00e+001 uM, Table 4): 92.0% and 99.0%
% Inh −AV ([1]; Conc 8.00e−001 uM, Table 4): 0.0%
IC50 [1, 5]: 5.2 µM
melting point: 107 to 108 °C

CC(C)(C)[Si](c1ccccc1)(c1ccccc1)c1cc(Cl)c2cccnc2c1O [Example 43, 5-Chloro-7-[(1,1,-dimethylethyl)diphenylsilyl]-8-quinolinol]
% Inh −AV ([1]; Conc 1.00e+001 uM, Table 4): 99.0%
% Inh −AV ([1]; Conc 1.25e+000 uM, Table 4): 87.0%
% Inh −AV ([1]; Conc 2.00e+001 uM, Table 4): 90.0%
% Inh −AV ([1]; Conc 2.50e+000 uM, Table 4): 99.0%
% Inh −AV ([1]; Conc 4.00e+000 uM, Table 4): 77.0% and 88.0%
% Inh −AV ([1]; Conc 4.00e+001 uM, Table 4): 85.0% and 81.0%
% Inh −AV ([1]; Conc 4.00e−001 uM, Table 4): 50.0%
% Inh −AV ([1]; Conc 5.00e+000 uM, Table 4): 99.0%
% Inh −AV ([1]; Conc 8.00e−001 uM, Table 4): 65.0% and 43.0%
IC50 [1, 5]: 0.12 µM and 0.44 µM
melting point: 133 to 139 °C

Cc1ccc2c(Cl)cc(S(=O)(=O)NCCc3ccccn3)c(O)c2n1 [drawing 329]
IC50 [1, 3]: 14.6 µM

N#Cc1ccc(NC(=O)c2ccc3cccnc3c2O)cc1 [drawing 331]
IC50 ([1]; Human betaherpesvirus 5, Fibroblast, Table 12, read-out: CMV Antiviral Assay IC50 (AV)): 3.9 µM

O=C(Nc1nc2ccc(Cl)cc2s1)c1ccc2cccnc2c1O [drawing 325]
IC50 [1, 3]: 25.5 µM

C[Si](C)(C)c1cc(Cl)c2cccnc2c1O [Example 44, 5-Chloro-7-(trimethylsilyl)-8-quinolinol]
% Inh −AV ([1]; Conc 4.00e+000 uM, Table 4): 65.0% and 59.0%
IC50 [1, 6]: 2.7 µM
melting point: 109 to 111 °C

Cc1ccc2c(Cl)cc(S(=O)(=O)NCCCCc3ccccc3)c(O)c2n1 [drawing 328]
IC50 [1, 3]: 3.5 µM

N#CCNC(=O)c1ccc2cccnc2c1O [drawing 130]
IC50 ([1]; Human betaherpesvirus 5, Fibroblast, read-out: CMV Antiviral Assay IC50 (AV), Table 7): 3 µM

C[Si](C)(c1ccccc1)c1cc(Cl)c2cccnc2c1O [Example 45, 5-Chloro-7-(dimethylphenylsilyl)-8-quinolinol]
% Inh −AV ([1]; Conc 2.00e+001 uM, Table 4): 83.0%
% Inh −AV ([1]; Conc 4.00e+000 uM, Table 4): 75.0%
% Inh −AV ([1]; Conc 4.00e+001 uM, Table 4): 89.0%
% Inh −AV ([1]; Conc 8.00e−001 uM, Table 4): 39.0%
IC50 [1, 6]: 1.2 µM
melting point: 101 to 103 °C

Cc1ccc2c(Cl)cc(S(=O)(=O)NCCc3ccc(NS(=O)(=O)c4ccccc4)cc3)c(O)c2n1 [Example 66, 5-Chloro-8-hydroxy-2-methyl-N-[2-[4-[(phenylsulfonyl)-amino]phenyl]ethyl]-7-quinolinesulfonamide]
inhibition at 6.25 µM ([2]; Concentration 6.25 μM): 41%
% Inhibition ([2]; Concentration 6.25 μM, 6.25 µM): 30%
inhibition at 25 µM ([2]; Concentration 25 μM): 57%
% Inhibition ([2]; Concentration 25 μM, 25 µM): 77%
inhibition at 50 µM ([2]; Concentration 50 μM): 64%
% Inhibition ([2]; Concentration 50 μM, 50 µM): 71%
inhibition at 100 µM ([2]; Concentration 100 μM): 86%
% Inhibition ([2]; Concentration 100 μM, 100 µM): 91%
inhibition at 200 µM ([2]; Concentration 200 μM): 89%
% Inhibition ([2]; Concentration 200 μM, 200 µM): 88%
melting point: 269 to 272 °C

CC(C)(C)[Si](C)(C)c1cc(Cl)c2cccnc2c1O [Example 41, 5-Chloro-7-[(1,1-dimethylethyl)dimethylsilyl]-8-quinolinol]
% Inh −AV ([1]; Conc 1.00e+001 uM, Table 4): 92.0%
% Inh −AV ([1]; Conc 2.00e+000 uM, Table 4): 56.0%
% Inh −AV ([1]; Conc 2.00e+001 uM, Table 4): 86.0% and 76.0%
% Inh −AV ([1]; Conc 4.00e+000 uM, Table 4): 65.0% and 70.0%
% Inh −AV ([1]; Conc 4.00e+001 uM, Table 4): 99.0% and 76.0%
% Inh −AV ([1]; Conc 5.00e+001 uM, Table 4): 78.0%
% Inh −AV ([1]; Conc 8.00e+000 uM, Table 4): 78.0%
IC50 [1, 5]: 3.8 µM
melting point: 107 to 108 °C
